Data reported in US20190375786A1, “STABLE PEPTIDES AND METHODS OF USE THEREOF” (Fred Hutchinson Cancer Research Center, priority 2016, published 2019).
Positions of bridges follow the written chain, without caps; N, C: chain ends. Residues, ends and D or L forms follow the SMILES beside them.

Assays:
pepsin = pepsin (Sus scrofa, UniProt P00791); experiment: Pepsin digestion resistance in simulated gastric fluid, RP-HPLC; type: in vitro ADME, porcine; set-up: purchased Sigma Aldrich P7012; conditions: 500 U/ml pepsin in SGF pH 1.05, 30 minutes at 37.5° C.; HPLC peak vs untreated peptide
pepsin, sequence (P00791 60-385): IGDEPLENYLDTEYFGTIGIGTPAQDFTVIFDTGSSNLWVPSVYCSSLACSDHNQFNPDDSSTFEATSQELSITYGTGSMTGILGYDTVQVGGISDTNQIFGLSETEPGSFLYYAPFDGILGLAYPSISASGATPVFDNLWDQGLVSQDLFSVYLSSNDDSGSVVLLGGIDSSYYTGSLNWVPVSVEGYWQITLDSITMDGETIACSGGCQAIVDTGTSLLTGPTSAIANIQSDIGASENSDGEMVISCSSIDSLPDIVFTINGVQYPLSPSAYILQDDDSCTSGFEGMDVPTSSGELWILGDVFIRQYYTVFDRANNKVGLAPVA
Experimental: Peptides were first suspended in 500 ul of ddH2O to a stock concentration of 2 mg/ml. Reactions were prepared by adding 12.5 ug of peptide from the stock solution to a 10 mM solution of DTT in PBS and allowed to incubate at room temperature for 30 minutes. Other reactions were prepared with 12.5 μg peptide with or without 500 U/ml pepsin in simulated gastric fluid (SGF; pH 1.05; […] sodium chloride in 0.7% (v/v) hydrochloric acid) and were incubated for 30 minutes at 37.5° C. Some reactions were quenched with a final concentration of 100 mM Tris base and 10 mM dithiothreitol (DTT). Some reactions were performed in all of the above components, including simulated gastric fluid, pepsin, Tris, and DTT (referred to as SPTD). Reversed phase HPLC (RP-HPLC) was run on samples using an Agilent 1260 HPLC equipped with a C-18 Poroshell 120B column. Sample were analyzed by a gradient method with a mobile phase of Solvent A (water with 0.1% TFA) and Solvent B (acetonitrile with 0.1% TFA). Solvent B was ramped up from 5%-45% of the mobile phase over a period of 10 minutes. Peptides were detected at an absorbance of 214 nm and 280 nm.
(§1) Peptides were first suspended in 500 μl of ddH2O to a stock concentration of 2 mg/ml. Reactions were prepared by adding 12.5 μg of peptide from the stock solution to a 10 mM solution of DTT in PBS and allowed to incubate at room temperature for 30 minutes. Other reactions were prepared with 12.5 μg peptide and 500 U/ml trypsin in 25 mM Tris/75 mM NaCl buffer (pH 7.0) and incubated for 30 minutes at 37.5° C. These reactions were then quenched with 5 μg of soybean trypsin inhibitor (I) and, in some cases, 10 mM dithiothreitol (DTT). Reversed phase HPLC (RP-HPLC) was run on samples using an Agilent 1260 HPLC equipped with a C-18 Poroshell 120B column. Sample were analyzed by a gradient method with a mobile phase of Solvent A (water with 0.1% TFA) and Solvent B (acetonitrile with 0.1% TFA). Solvent B was ramped up from 5%-45% of the mobile phase over a period of 10 minutes. For testing pepsin digestion resistance, reactions were prepared with 12.5 μg peptide with or without 500 U/ml pepsin in simulated gastric fluid (SGF; pH 1.05; […] sodium chloride in 0.7% (v/v) hydrochloric acid) and were incubated for 30 minutes at 37.5° C. For testing temperature resistance, peptides were incubated at 70° C., 75° C., or 100° C. for one hour in 0.5 mM PBS, pelleted, and then the supernatant was analyzed by HPLC.
(§2) This example illustrates peptide stability in biological conditions including in the presence of reducing agents, proteases, oxidative conditions, acidic conditions, and simulated gastric fluids. […] Various peptides were suspended in 500 μl of ddH2O at a stock concentration of 2 mg/ml. This was then diluted in accord with the reaction conditions to prevent adverse buffering effects. Reactions were prepared with 12.5 μg peptide dissolved in solution and, in some samples, additionally suspended in a 10 mM solution of DTT, simulated gastric fluid (pH 1.05; […] sodium chloride in 0.7% (v/v) hydrochloric acid), 500 U pepsin (5000 U/ml pepsin), 50 U trypsin (500 U/ml trypsin) with 1 mg/ml inhibitor in PBS, or a combination of any of these conditions. All protease reactions were incubated for 30 min at room temperature and then quenched. Pepsin reactions were quenched by adding Tris base to a final concentration of 0.075 M. Trypsin reactions were quenched by adding excess soybean trypsin inhibitor. RP-HPLC was then run on samples using an Agilent 1260 HPLC equipped with a C-18 Poroshell 120B column. Sample were analyzed by a gradient method with a mobile phase of Solvent A (water with 0.1% TFA) and Solvent B (acetonitrile with 0.1% TFA). Solvent B was ramped up from 5%-45% of the mobile phase over a period of 10 minutes.
FIG. 20 illustrates high performance liquid chromatograph (HPLC) traces of peptides after pepsin digestion. […]

trypsin = trypsin (Sus scrofa, UniProt P00761); experiment: Trypsin digestion resistance of soluble peptide, RP-HPLC; type: in vitro ADME, porcine; set-up: purchased Sigma Aldrich 6567; conditions: 500 U/ml trypsin, 30 minutes at 37.5° C.; HPLC peak vs untreated peptide
trypsin, sequence (P00761 9-231): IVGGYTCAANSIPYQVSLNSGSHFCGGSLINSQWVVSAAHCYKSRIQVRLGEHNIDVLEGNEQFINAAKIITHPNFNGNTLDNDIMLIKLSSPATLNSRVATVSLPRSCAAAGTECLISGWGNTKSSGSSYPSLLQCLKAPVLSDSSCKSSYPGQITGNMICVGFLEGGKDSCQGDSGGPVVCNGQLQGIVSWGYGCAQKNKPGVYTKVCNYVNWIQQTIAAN
Experimental: as §1, §2
Soluble peptides were exposed to 500 U/mL porcine trypsin and analyzed by HPLC. Protease resistance was also assessed by using SDPR-displaying peptides. The SDPR vector is similar to the a surface display GFP FasL(SDGF) vector, but contains a C-terminal 6×His tag (SEQ ID NO: 180) and all basic or aromatic amino acid residues on the stalk removed. Protease resistance is then tested by incubation of cells displaying peptides with trypsin or chymotrypsin, followed by incubation in 10 mM DTT, and staining with an anti-6×His fluorophore-labeled antibody (“6×His” disclosed as SEQ ID NO: 180). If peptides are uncleaved, they retain the His tag and are stained with by the antibody. A control protease-sensitive knottin peptide (SK) was used as a positive control. Cells displaying peptides were treated with up to 40 μg/ml trypsin or chymotrypsin.
FIG. 21 illustrates high performance liquid chromatograph (HPLC) traces of peptides after trypsin digestion. […] The assay was carried out by reconstituting 1 mg porcine trypsin (Sigma Aldrich 6567) in 1 mL of 1 mM HCl. Trypsin was provided at a concentration of 10,000 u/mL and thus, 5 μl of stock solution was equivalent to using 50 U of trypsin in each reaction. Soybean trypsin inhibitor (SA T9128) was prepared at 1 mg/mL of in H2O. […]

SMILES | Resistance to Pepsin (500 U/ml) (pepsin) | Resistance to Trypsin (500 U/ml) (trypsin)
CC[C@H](C)[C@@H]1NC(=O)[C@@H]2CSSC[C@@H]3NC(=O)[C@H](CCC(N)=O)NC(=O)[C@H](CO)NC(=O)[C@H]([C@@H](C)O)NC(=O)[C@H](CC(N)=O)NC(=O)[C@H](CO)NC(=O)[C@@H](NC(=O)[C@H](CCCCN)NC(=O)[C@H](CCCCN)NC(=O)[C@H](CC(N)=O)NC(=O)[C@@H](NC(=O)[C@H](CO)NC(=O)[C@@H](NC(=O)[C@H](CCC(N)=O)NC(=O)[C@H](CO)NC(=O)CN)C(C)C)[C@@H](C)O)CSSC[C@H](NC(=O)[C@H](CCCCN)NC(=O)CNC(=O)[C@H](C)NC(=O)[C@H](C)NC(=O)[C@H](C(C)C)NC(=O)CNC(=O)[C@H](C(C)C)NC(=O)[C@H](C(C)C)NC(=O)[C@H](CCCCN)NC(=O)[C@H](CCC(=O)O)NC(=O)[C@H](CSSC[C@@H](C(=O)N[C@@H](Cc4ccc(O)cc4)C(=O)N4CCC[C@H]4C(=O)O)NC1=O)NC(=O)[C@H]([C@@H](C)O)NC(=O)[C@H](CCCCN)NC(=O)[C@H](Cc1ccc(O)cc1)NC3=O)C(=O)N[C@@H](CCSC)C(=O)N[C@@H](CC(N)=O)C(=O)NCC(=O)N[C@@H](CCCCN)C(=O)N2 [compound 18] (H-GSQVSTNKKCSNTSQCYKTCEKVVGVAAGKCMNGKCICYP-OH; disulfide 10-31, 16-36, 20-38) | High (A peptide classified as high indicates that the majority (at least 75%) of the HPLC peak of the treated peptide is still present as compared to the HPLC peak of the untreated peptide) | Low (A peptide classified as low indicates that the majority (over 75%) of the HPLC peak of the treated peptide disappeared as compared to the HPLC peak of the untreated peptide)
CC[C@H](C)[C@@H]1NC(=O)[C@H](CCCCN)NC(=O)[C@@H](NC(=O)[C@H](CCCCN)NC(=O)[C@@H](NC(=O)[C@H](CC(N)=O)NC(=O)[C@@H](NC(=O)[C@@H](NC(=O)[C@@H](NC(=O)CNC(=O)[C@H](CO)NC(=O)CN)C(C)C)[C@@H](C)CC)[C@@H](C)CC)C(C)C)CSSC[C@@H]2NC(=O)[C@H](CCCCN)NC(=O)CNC(=O)[C@H](Cc3ccccc3)NC(=O)[C@H](CCCNC(=N)N)NC(=O)[C@H](CCSC)NC(=O)CNC(=O)[C@H](C)NC(=O)[C@H](CCCCN)NC(=O)[C@H](CCCCN)NC(=O)[C@@H]3CSSC[C@@H](C(=O)N[C@H](C(=O)N4CCC[C@H]4C(=O)N[C@@H](CCCCN)C(=O)O)[C@@H](C)O)NC(=O)[C@H](Cc4c[nH]cn4)NC(=O)[C@H](CSSC[C@H](NC(=O)[C@H](CCC(N)=O)NC(=O)[C@H](CCCNC(=N)N)NC(=O)[C@H](CO)NC1=O)C(=O)N[C@@H](CC(C)C)C(=O)N[C@@H](CCC(=O)O)C(=O)N1CCC[C@H]1C(=O)N3)NC(=O)[C@H](CCCCN)NC(=O)CNC(=O)[C@H](CC(N)=O)NC(=O)[C@H](CCSC)NC2=O [compound 57] | High (A peptide classified as high indicates that the majority (at least 75%) of the HPLC peak of the treated peptide is still present as compared to the HPLC peak of the untreated peptide) | High (A peptide classified as high indicates that the majority (at least 75%) of the HPLC peak of the treated peptide is still present as compared to the HPLC peak of the untreated peptide)
CSCC[C@@H]1NC(=O)[C@@H]2CSSC[C@H](NC(=O)[C@H](CCCCN)NC(=O)[C@@H](NC(=O)[C@H](CC(=O)O)NC(=O)[C@@H](NC(=O)[C@H](Cc3ccccc3)NC(=O)[C@H](CCC(N)=O)NC(=O)[C@H](CO)NC(=O)CN)[C@@H](C)O)C(C)C)C(=O)N[C@@H]([C@@H](C)O)C(=O)NCC(=O)N[C@@H](CO)C(=O)N[C@@H](CCCCN)C(=O)N[C@@H](CCC(N)=O)C(=O)N[C@H]3CSSC[C@H](NC(=O)[C@H](CCCCN)NC(=O)CNC(=O)[C@H](CC(N)=O)NC1=O)C(=O)N[C@@H](CCCNC(=N)N)C(=O)N[C@H](C(=O)N[C@@H](Cc1ccc(O)cc1)C(=O)N[C@@H](CO)C(=O)O)CSSC[C@H](NC(=O)[C@H](C(C)C)NC(=O)[C@@H]1CCCN1C(=O)[C@H](Cc1c[nH]c4ccccc14)NC3=O)C(=O)N[C@@H](CCCCN)C(=O)N[C@@H](CCC(N)=O)C(=O)N[C@@H](CCSC)C(=O)N[C@@H](Cc1ccccc1)C(=O)NCC(=O)N[C@@H](CCCCN)C(=O)N1CCC[C@H]1C(=O)N[C@@H](CC(N)=O)C(=O)NCC(=O)N[C@@H](CCCCN)C(=O)N2 [compound 12] (H-GSQFTDVKCTGSKQCWPVCKQMFGKPNGKCMNGKCRCYS-OH; disulfide 9-30, 15-35, 19-37) | High (A peptide classified as high indicates that the majority (at least 75%) of the HPLC peak of the treated peptide is still present as compared to the HPLC peak of the untreated peptide) | Moderate (A peptide classified as medium indicates that about half (between 25% and 75%) of the HPLC peak of the treated peptide disappeared as compared to the HPLC peak of the untreated peptide)
CC[C@H](C)[C@H](NC(=O)[C@H](CC(=O)O)NC(=O)[C@@H](NC(=O)[C@@H]1CCCN1C(=O)[C@H](CCCNC(=N)N)NC(=O)[C@H](CO)NC(=O)CN)[C@@H](C)O)C(=O)N[C@@H](CCCCN)C(=O)N[C@H]1CSSC[C@@H]2NC(=O)[C@H](CCCNC(=N)N)NC(=O)CNC(=O)[C@H](CC(N)=O)NC(=O)[C@H]([C@@H](C)O)NC(=O)[C@H](CCCCN)NC(=O)CNC(=O)[C@H](Cc3ccccc3)NC(=O)[C@H](CCCNC(=N)N)NC(=O)[C@H](CO)NC(=O)[C@H](CCCCN)NC(=O)[C@@H]3CSSC[C@@H](C(=O)N[C@@H](Cc4ccccc4)C(=O)O)NC(=O)[C@H](CC(=O)O)NC(=O)[C@H](CSSC[C@H](NC(=O)[C@H](CCC(N)=O)NC(=O)[C@H](Cc4ccc(O)cc4)NC(=O)[C@H](CO)NC(=O)[C@H](C)NC(=O)[C@H](CO)NC1=O)C(=O)N[C@@H](Cc1ccccc1)C(=O)N1CCC[C@H]1C(=O)N[C@@H](C(C)C)C(=O)N3)NC(=O)[C@H](CC(C)C)NC(=O)CNC(=O)[C@H](CC(N)=O)NC(=O)[C@H](C(C)C)NC2=O [compound 10] (H-GSRPTDIKCSASYQCFPVCKSRFGKTNGRCVNGLCDCF-OH; disulfide 9-30, 15-35, 19-37) | High (A peptide classified as high indicates that the majority (at least 75%) of the HPLC peak of the treated peptide is still present as compared to the HPLC peak of the untreated peptide) | Low (A peptide classified as low indicates that the majority (over 75%) of the HPLC peak of the treated peptide disappeared as compared to the HPLC peak of the untreated peptide)
